Reference: PubChem BioAssay AID602328 (NMMLSC, 2012)
The source made the active and inactive calls. How the calls were made is not given here.

Target: Botulinum neurotoxin type A (Clostridium botulinum (strain Hall / ATCC 3502 / NCTC 13319 / Type A)) (UniProt P0DPI1)
Test: inhibition of botulinum toxin A LC cleavage – biochemical, multiplex microsphere flow cytometry, cherry pick 02, dose response (AID 602328)
Conditions: BoNT/A LC substrate cleavage

Sequence of Botulinum neurotoxin type A (Clostridium botulinum (strain Hall / ATCC 3502 / NCTC 13319 / Type A)) (P0DPI1 whole entry, looked up): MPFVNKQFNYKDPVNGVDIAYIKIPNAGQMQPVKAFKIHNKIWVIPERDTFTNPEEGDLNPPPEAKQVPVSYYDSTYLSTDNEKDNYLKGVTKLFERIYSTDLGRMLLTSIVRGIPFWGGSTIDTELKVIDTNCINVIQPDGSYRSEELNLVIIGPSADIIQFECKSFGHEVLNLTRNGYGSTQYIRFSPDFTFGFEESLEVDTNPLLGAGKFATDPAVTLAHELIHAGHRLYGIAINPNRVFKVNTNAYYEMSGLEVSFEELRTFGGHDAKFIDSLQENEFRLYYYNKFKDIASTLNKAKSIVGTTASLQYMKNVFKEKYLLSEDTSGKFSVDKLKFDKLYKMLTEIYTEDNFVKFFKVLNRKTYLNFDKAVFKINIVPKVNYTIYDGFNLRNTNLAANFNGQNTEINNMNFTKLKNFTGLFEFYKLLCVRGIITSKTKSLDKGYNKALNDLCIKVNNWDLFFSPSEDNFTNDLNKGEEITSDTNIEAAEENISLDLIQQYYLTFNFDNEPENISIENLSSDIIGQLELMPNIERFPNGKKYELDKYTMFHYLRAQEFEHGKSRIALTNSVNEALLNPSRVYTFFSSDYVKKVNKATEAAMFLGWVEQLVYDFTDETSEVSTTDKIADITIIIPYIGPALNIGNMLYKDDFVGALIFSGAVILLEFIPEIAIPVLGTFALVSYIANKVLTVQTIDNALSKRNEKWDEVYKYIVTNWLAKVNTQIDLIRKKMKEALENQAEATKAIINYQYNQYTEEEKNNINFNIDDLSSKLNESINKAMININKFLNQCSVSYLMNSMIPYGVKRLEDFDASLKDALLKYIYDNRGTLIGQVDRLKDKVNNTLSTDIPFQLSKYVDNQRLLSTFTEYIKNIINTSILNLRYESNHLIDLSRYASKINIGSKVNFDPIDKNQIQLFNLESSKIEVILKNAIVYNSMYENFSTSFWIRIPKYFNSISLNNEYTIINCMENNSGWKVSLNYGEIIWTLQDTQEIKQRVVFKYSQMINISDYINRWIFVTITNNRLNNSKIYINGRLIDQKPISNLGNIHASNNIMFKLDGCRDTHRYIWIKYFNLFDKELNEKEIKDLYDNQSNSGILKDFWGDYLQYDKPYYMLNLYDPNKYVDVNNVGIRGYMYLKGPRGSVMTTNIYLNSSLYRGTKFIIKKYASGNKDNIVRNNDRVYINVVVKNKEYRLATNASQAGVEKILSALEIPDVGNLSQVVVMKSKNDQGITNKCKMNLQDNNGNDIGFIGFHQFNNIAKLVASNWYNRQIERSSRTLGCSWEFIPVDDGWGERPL

Oc1[nH]c(N=C2N=c3ccccc3=N2)c2ccccc12
IC50: > 20 µM (inactive)

O=c1c(/C=C(\O)c2ccccc2)nc2ccccc2n1-c1ccccc1
IC50: > 20 µM (inactive)
